Test results: ChEMBL document CHEMBL2163248, “Classification of inhibitors of hepatic organic anion transporting polypeptides (OATPs): influence of protein expression on drug-drug interactions” (J Med Chem, 2012)

What was measured:
OATP1B1 = target: T1, OATP1B1 (Homo sapiens, UniProt Q9Y6L6); experiment: (§1) Inhibition of human liver OATP1B1 expressed in HEK293 Flp-In cells assessed as reduction in E17-betaG uptake at 20 uM by scintillation counting
T1 sequence (Q9Y6L6 whole entry): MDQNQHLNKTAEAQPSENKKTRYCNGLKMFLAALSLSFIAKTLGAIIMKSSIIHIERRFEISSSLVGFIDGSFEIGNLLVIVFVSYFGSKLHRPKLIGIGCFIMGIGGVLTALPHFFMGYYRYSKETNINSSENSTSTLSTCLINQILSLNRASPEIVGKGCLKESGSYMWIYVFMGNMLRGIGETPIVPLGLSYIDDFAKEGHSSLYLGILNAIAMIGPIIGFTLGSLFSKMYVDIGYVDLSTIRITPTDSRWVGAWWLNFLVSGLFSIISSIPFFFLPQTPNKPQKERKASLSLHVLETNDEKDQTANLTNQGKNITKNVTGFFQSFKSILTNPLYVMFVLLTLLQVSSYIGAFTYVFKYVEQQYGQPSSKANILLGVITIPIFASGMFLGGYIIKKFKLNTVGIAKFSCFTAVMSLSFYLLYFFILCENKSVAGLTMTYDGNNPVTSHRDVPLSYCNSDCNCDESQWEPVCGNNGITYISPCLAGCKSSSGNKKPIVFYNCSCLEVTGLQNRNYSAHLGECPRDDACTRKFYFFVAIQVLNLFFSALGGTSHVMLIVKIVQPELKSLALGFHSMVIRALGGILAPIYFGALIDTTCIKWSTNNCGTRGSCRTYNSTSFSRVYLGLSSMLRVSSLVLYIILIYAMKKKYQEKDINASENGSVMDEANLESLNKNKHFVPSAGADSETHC

[1] = target: T2, Solute carrier organic anion transporter family member 2B1 (Homo sapiens, UniProt O94956); experiment: Inhibition of human liver OATP2B1 expressed in HEK293 Flp-In cells assessed as reduction in [3H]E3S uptake at 20 uM incubated for 5 mins by scintillation counting; details: hek293, 5 min
T2 sequence (O94956 whole entry): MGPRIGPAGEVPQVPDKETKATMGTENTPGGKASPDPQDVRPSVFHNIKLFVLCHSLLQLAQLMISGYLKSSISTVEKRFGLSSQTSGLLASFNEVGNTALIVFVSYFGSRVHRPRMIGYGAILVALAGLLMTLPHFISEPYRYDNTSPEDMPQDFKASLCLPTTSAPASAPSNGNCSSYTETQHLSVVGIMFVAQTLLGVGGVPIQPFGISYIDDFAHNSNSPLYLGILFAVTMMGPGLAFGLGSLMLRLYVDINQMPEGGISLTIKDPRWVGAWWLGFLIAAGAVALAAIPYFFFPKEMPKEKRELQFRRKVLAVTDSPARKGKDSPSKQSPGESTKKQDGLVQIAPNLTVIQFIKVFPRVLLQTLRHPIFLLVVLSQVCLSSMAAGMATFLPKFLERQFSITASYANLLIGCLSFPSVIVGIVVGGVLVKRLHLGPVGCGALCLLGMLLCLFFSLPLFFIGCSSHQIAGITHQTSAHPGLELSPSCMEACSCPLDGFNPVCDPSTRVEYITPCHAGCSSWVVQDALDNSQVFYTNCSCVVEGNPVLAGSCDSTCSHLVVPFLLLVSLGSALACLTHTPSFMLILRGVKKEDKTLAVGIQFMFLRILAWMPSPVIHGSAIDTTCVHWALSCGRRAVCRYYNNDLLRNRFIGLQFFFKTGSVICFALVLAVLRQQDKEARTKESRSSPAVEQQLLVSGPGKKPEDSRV

[2] = target: T3, Solute carrier organic anion transporter family member 1B3 (Homo sapiens, UniProt Q9NPD5); experiment: Inhibition of human liver OATP1B3 expressed in HEK293 Flp-In cells assessed as reduction in [3H]E17-betaG uptake at 20 uM incubated for 5 mins by scintillation counting; details: hek293, 5 min
T3 sequence (Q9NPD5 whole entry): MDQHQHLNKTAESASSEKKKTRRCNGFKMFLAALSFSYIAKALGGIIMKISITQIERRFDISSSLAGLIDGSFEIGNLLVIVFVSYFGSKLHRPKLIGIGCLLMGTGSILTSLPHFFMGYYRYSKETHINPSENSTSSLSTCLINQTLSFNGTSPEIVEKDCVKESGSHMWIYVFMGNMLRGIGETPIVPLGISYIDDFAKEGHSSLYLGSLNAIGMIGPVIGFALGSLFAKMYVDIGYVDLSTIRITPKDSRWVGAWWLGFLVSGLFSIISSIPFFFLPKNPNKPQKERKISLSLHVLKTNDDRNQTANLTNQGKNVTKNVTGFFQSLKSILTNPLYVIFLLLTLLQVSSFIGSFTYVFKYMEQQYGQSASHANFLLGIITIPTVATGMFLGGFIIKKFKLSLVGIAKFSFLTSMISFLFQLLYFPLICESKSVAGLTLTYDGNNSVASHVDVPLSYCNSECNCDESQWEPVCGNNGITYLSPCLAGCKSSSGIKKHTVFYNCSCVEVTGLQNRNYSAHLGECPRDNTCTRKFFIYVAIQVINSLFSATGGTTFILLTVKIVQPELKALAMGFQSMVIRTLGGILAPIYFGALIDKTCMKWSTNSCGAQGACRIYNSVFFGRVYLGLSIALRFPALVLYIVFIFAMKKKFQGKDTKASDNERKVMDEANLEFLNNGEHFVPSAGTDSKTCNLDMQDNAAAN

[3] = target: T4, Solute carrier organic anion transporter family member 1B1 (Homo sapiens, UniProt Q9Y6L6); experiment: Inhibition of human liver OATP1B1 expressed in HEK293 Flp-In cells assessed as reduction in E17-betaG uptake by scintillation counting; format: ADME, cell-based
T4 sequence (Q9Y6L6 whole entry): T1 sequence (Q9Y6L6 whole entry)

[4] = target: T4, Solute carrier organic anion transporter family member 1B1; experiment: as §1; details: hek293, 20 µM
[5] = Fraction unbound in plasma; format: ADME, cell-free
[6] = target: T2, Solute carrier organic anion transporter family member 2B1; experiment: Inhibition of human liver OATP2B1 expressed in HEK293 Flp-In cells assessed as reduction in [3H]E3S uptake incubated for 5 mins by scintillation counting; format: ADME, cell-based
[7] = target: T3, Solute carrier organic anion transporter family member 1B3; experiment: Activity at human liver OATP1B3 expressed in HEK293 Flp-In cells assessed as rate of compound transport per mg of protein; format: ADME, cell-based
OATP1B3 = target: T5, OATP1B3 (Homo sapiens, UniProt Q9NPD5); experiment: Activity at human liver OATP1B3 expressed in HEK293 Flp-In cells; format: ADME, cell-based; details: HEK293 Flp-In cells expressing OATP1B3
T5 sequence (Q9NPD5 whole entry): T3 sequence (Q9NPD5 whole entry)

[8] = target: T3, Solute carrier organic anion transporter family member 1B3; experiment: Ratio of Vmax to Km for human liver OATP1B3 expressed in HEK293 Flp-In cells assessed per mg protein; format: ADME, cell-based
OATP1B1 versus OATP1B3 = experiment: Selectivity index, ratio of IC50 for human liver OATP1B1 to IC50 for OATP1B3; details: read-out: Ratio IC50
[9] = target: T3, Solute carrier organic anion transporter family member 1B3; experiment: Inhibition of human liver OATP1B3 expressed in HEK293 Flp-In cells assessed as reduction in [3H]E17-betaG uptake incubated for 5 mins by scintillation counting; format: ADME, cell-based
[10] = HEK293 Flp-In cells expressing OATP1B1, probe E17-betaG

SMILES | inhibition at 20 µM (OATP1B1; [10]) [%] | INH [1] [%] | INH [2] [%] | further results
C[n+]1ccccc1 | 27.9 | 12.8 | -2.3 | 
C[n+]1ccc(-c2ccccc2)cc1 | 14.2 | 2.4 | 10.8 | 
CCOc1ccc(-c2nc3cc(-c4nc5cc(N6CCN(C)CC6)ccc5[nH]4)ccc3[nH]2)cc1 |  | 12.7 |  | inhibition at 20 µM (OATP1B1; hek293): 48.1%; IC50 [3]: 19 µM
C[n+]1cc2c3c(ccc2c2ccc4cc5c(cc4c21)OCO5)OCO3 | -0.2 | 15 | 2.9 | 
CC(=O)Oc1ccc2c(c1)Oc1cc(OC(C)=O)ccc1C21OC(=O)c2cc(C(=O)O)ccc21 | 70.7 | -24.9 | 71.1 | 
N[C@@H]1C[C@H]1c1ccccc1.N[C@H]1C[C@@H]1c1ccccc1 (relative stereo) [TRANYLCYPROMINE] |  | 15.5 | -9.3 | inhibition at 20 µM (OATP1B1; hek293): -9.5%
Cc1ccc(-c2cc(C(F)(F)F)nn2-c2ccc(S(N)(=O)=O)cc2)cc1 [CELECOXIB] |  | -69 | 22.3 | inhibition at 20 µM (OATP1B1; hek293): -3.3%
COc1ccc2c(c[n+](C)c3c4cc5c(cc4ccc23)OCO5)c1OC [CHELERYTHRINE] | -0.7 | 13.1 | 24.9 | 
CCN(CC)CCCC(C)Nc1ccnc2cc(Cl)ccc12 (configuration not stated) [CHLOROQUINE] | -1.4 | 23.5 | -7.2 | 
CC[C@H]1OC(=O)[C@H](C)[C@@H](O[C@H]2C[C@@](C)(OC)[C@@H](O)[C@H](C)O2)[C@H](C)[C@@H](O[C@@H]2O[C@H](C)C[C@H](N(C)C)[C@H]2O)[C@](C)(OC)C[C@@H](C)C(=O)[C@H](C)[C@@H](O)[C@]1(C)O [CLARITHROMYCIN] | 73.1 | 5.1 | 53.8 | 
COc1cccc2c1C(=O)c1c(O)c3c(c(O)c1C2=O)C[C@@](O)(C(=O)CO)C[C@@H]3O[C@H]1C[C@H](N)[C@H](O)[C@H](C)O1 [DOXORUBICIN] | -5.8 | 49.9 | 26.6 | 
C#Cc1cccc(Nc2ncnc3cc(OCCOC)c(OCCOC)cc23)c1 [ERLOTINIB] |  | 93.7 | 27.5 | INH [4]: 10.6%; Cp(f) [5]: 400 nM; IC50 [6]: 0.55 µM
C[C@]12CC[C@@H]3c4ccc(O)cc4CC[C@H]3[C@@H]1CC[C@@H]2O[C@@H]1O[C@H](C(=O)O)[C@@H](O)[C@H](O)[C@H]1O [ESTRADIOL 17B GLUCURONIDE] | 67.9 | -12.2 | 69 | Vmax [7]: 10.12 pmol/min; Km (OATP1B3): 11.7 µM; Vmax/Km [8]: 0.86 µL/min
C[C@H](CCC(=O)NCC(=O)O)[C@H]1CC[C@H]2[C@@H]3[C@H](O)C[C@@H]4C[C@H](O)CC[C@]4(C)[C@H]3C[C@H](O)[C@]12C [GLYCOCHOLIC ACID] | 66.4 | -9.8 | 29 | 
N[C@@H](Cc1cc(I)c(Oc2cc(I)c(O)c(I)c2)c(I)c1)C(=O)O [LEVOTHYROXINE] | -13.1 | 63.7 | 11.4 | 
CC1COc2c(N3CCN(C)CC3)c(F)cc3c(=O)c(C(=O)O)cn1c23 (configuration not stated) [OFLOXACIN] | -8.2 | 18.4 | 24.5 | 
CCCc1nc(C(C)(C)O)c(C(=O)OCc2oc(=O)oc2C)n1Cc1ccc(-c2ccccc2-c2nnn[nH]2)cc1 [OLMESARTAN MEDOXOMIL] | 60.4 | -7.9 |  | 
Cc1nccn1CC1CCc2c(c3ccccc3n2C)C1=O (configuration not stated) [ONDANSETRON] | 4.8 | -8.7 | -3.6 | 
S=C=NCCc1ccccc1 [PHENETHYLISOTHIOCYANATE] | -16.4 | -32 | 12.3 | 
CC[C@H](C)C(=O)O[C@H]1C[C@H](O)C=C2C=C[C@H](C)[C@H](CC[C@@H](O)C[C@@H](O)CC(=O)O)[C@H]21 [PRAVASTATIN] |  | 36.8 | 5.4 | INH [4]: 52.2%; IC50 [3]: 3.6 µM
CSCC[C@H](NC(=O)[C@H](Cc1ccc(OS(=O)(=O)O)cc1)NC(=O)[C@@H](N)CC(=O)O)C(=O)NCC(=O)N[C@@H](Cc1c[nH]c2ccccc12)C(=O)N[C@@H](CCSC)C(=O)N[C@@H](CC(=O)O)C(=O)N[C@@H](Cc1ccccc1)C(N)=O [SINCALIDE] | 89.3 | 60.1 | 96.9 | 
C[C@H](CCC(=O)NCCS(=O)(=O)O)[C@H]1CC[C@H]2[C@@H]3CC[C@@H]4C[C@H](O)CC[C@]4(C)[C@H]3C[C@H](O)[C@]12C [TAURODEOXYCHOLIC ACID] | 81.7 | 85.3 | 61.4 | 
CC[C@]1(O)C[C@H]2CN(CCc3c([nH]c4ccccc34)[C@@](C(=O)OC)(c3cc4c(cc3OC)N(C=O)[C@H]3[C@@](O)(C(=O)OC)[C@H](OC(C)=O)[C@]5(CC)C=CCN6CC[C@]43[C@@H]65)C2)C1 [VINCRISTINE] |  | 13 | 59.8 | INH [4]: 3.9%; selectivity ratio (OATP1B1 versus OATP1B3): 4; IC50 [3]: 44 µM; IC50 [9]: 11 µM
